# In EP0982027A1, “Taxoid derivatives for treating abnormal cell proliferation of the brain” (RHONE-POULENC RORER S.A., priority 1998, dated 2000):
# Where two headings read alike, the source gives them in different places.
# Assay: in vivo
# Design: species or system female C3H/HeN mice
# Details: mouse; for concentration at 6 h: 6h after dose; for concentration at 8 h: 8h after dose; for concentration at 14 h: 14h after dose; for concentration at 24 h: 24 h after dose; for concentration at 48 h: 48 h after dose; for concentration at 5 min: 5 min after dose; for concentration at 0.25 h: 15 min after dose; for concentration at 0.5 h: 0.5h after dose; for concentration at 0.75 h: 0.75h after dose; for concentration at 1 h: 1h after dose; for Vd: read-out: Vdss; for AUC(0-inf): mean level data
# Description: Groups of female C3H/HeN mice received the product by the intravenous route as a bolus at a dose level of 40 mg.kg^-1 equivalent to 120 mg.m^-2. Blood and brain samples were obtained from all dosed animals sacrificed at intervals up to 72 hours post dose. Brain and corresponding plasma samples have been assayed for product Ia content by an LC-MS/MS assay.
# • Formulation: 2.25 mg.ml^-1 solution containing 5 % Polysorbate 80, 5 % ethanol and 90 % of an aqueous 5 % glucose solution. […]
# • Sampling : Blood by cardiac puncture and liver and brain by dissection after CO2 sacrifice • Sample Times : at 2, 5, 15, 30, 45 minutes, 1, 2, 4, 6, 8, 14, 24, 48 and 72 hours post dose.
# Whole blood was collected into heparinised tubes and corresponding plasma samples were obtained by centrifugation and frozen immediately at -20°C. Tissues were blotted, weighed and frozen immediately at -20°C. All samples were dispatched frozen for analysis. Upon receipt, samples were stored frozen at approximately -18°C pending analysis.
# • Detection: LC-MS/MS (Sciex API III plus) in turbo-ionspray mode
# The following MS conditions were applied:
# Column: 75 x 4.6 mm Supelcosil ABZ plus (3 µm). Mobile phase: Acetonitrile/methanol/ammonium acetate (10mM); 40/25/35 v/v/v. Flow rate : 1 ml.min^-1. Temperature : Ambient. Extraction : Plasma: Add 100 µl of acetonitrile to sample (50 µl). Vortex, centrifuge, remove supernatant, add 100 µl of mobile phase and inject 150 µl. Brain : Add 100 µl of acetonitrile to homogenised sample (100 mg of a 1:1 w/w brain with water homogenate) and vortex. Add 1ml of diethyl ether, vortex, centrifuge, remove organic layer and dry under N2. Reconstitute in 200 µl of mobile phase and inject 150 µl. Calibration standards: Plasma : Nine at concentrations of 5, 10, 20, 50, 100, 200, 300, 400 & 500 ng.ml^-1 (product Ia). Prepared by adding suitable aliquots of the product (concentrations = 0.1, 1 or 10 µg.ml^-1) in ethanol to 0.5 ml aliquots of mouse plasma. Each sample was vortexed following drug addition; a 50 µl aliquot was then removed for assay. Brain : Eleven at concentrations of 10, 20, 30, 100, 200, 300, 400, 500, 1000, 2500 & 5000 ng.g^-1 in homogenised mouse brain (1:1 w/w brain with water). Prepared by adding suitable aliquots of the product (concentrations = 1, 10 or 100 µg.ml^-1) in ethanol to 0.5, 1, 3 or 4 g of homogenised mouse brain. Each sample was vortexed following drug addition and a 100 mg aliquot was then removed for assay. Retention times: Drug; product Ia: ∼2.3 min. Extraction efficiency : Plasma : ca.58 % at 200 ng.ml^-1. Brain : ca.41 % at 500 ng.g^-1 and 39 % at 1000 ng.g^-1.
# A biexponential equation was fitted to the profiles using an interactive linear least-square algorithm as part of the SIPHAR package.
# AUC0-∞: Area under the plasma or brain concentration versus time curve from t=0 (start of infusion) to infinity. Initial T1/2: Initial (distribution) half-life. Terminal T1/2: Terminal (elimination) half-life (should be regarded as an estimate only being dependent on sampling frequency in the terminal phase and assay sensitivity). ClT: Total plasma clearance. Vdss: Volume of distribution at steady state. n.a.: Not applicable.
# [1] = brain, iv, 40 mg/kg, 40 mg.kg^-1 i.v., MEAN, read-out: Brain product Ic concentration
# [2] = brain, iv, 40 mg/kg, 40 mg.kg^-1 i.v., individual animals IV1-IV4, read-out: Brain product Ic concentration
# [3] = plasma, iv, 40 mg/kg, 40 mg.kg^-1 i.v., MEAN, read-out: Plasma product Ic concentration
# [4] = plasma, iv, 40 mg/kg, 40 mg.kg^-1 i.v., individual animals IV1-IV4, read-out: Plasma product Ic concentration
# [5] = plasma, iv, 40 mg/kg, Plasma+, calculated from values ≥ l.o.d. of 4 ng.ml^-1, 40 mg.kg^-1 i.v.
structure (smiles),measurement,setting,value
"CO[C@H]1C(=O)[C@]2(C)[C@@H](OC)C[C@H]3OC[C@@]3(OC(C)=O)[C@H]2[C@H](OC(=O)c2ccccc2)[C@]2(O)C[C@H](OC(=O)[C@H](O)[C@@H](NC(=O)OC(C)(C)C)c3ccccc3)C(C)=C1C2(C)C [product Ia, 4α-acetoxy-2α-benzoyloxy-5β,20-epoxy-1β-hydroxy-7β,10β-dimethoxy-9-oxo-11-taxen-13α-yl (2R,3S)-3 tert-butoxycarbonylamino-2-hydroxy-3-phenylpropionate]",concentration at 4 h,"brain, iv, 40 mg/kg, 40 mg.kg^-1 i.v., 4h after dose, individual animals IV1-IV4, read-out: Brain product Ic concentration",7910 ng/g
same,concentration at 6 h,[1],6430 ng/g
same,concentration at 8 h,[1],8250 ng/g
same,concentration at 8 h,[2],9070 ng/g
same,concentration at 14 h,[1],9130 ng/g
same,concentration at 14 h,[2],9620 ng/g
same,concentration at 24 h,[1],8670 ng/g
same,concentration at 24 h,[2],7900 ng/g
same,concentration at 48 h,[1],7720 ng/g
same,concentration at 48 h,[2],6660 ng/g
same,concentration at 72 h,"brain, iv, 40 mg/kg, 40 mg.kg^-1 i.v., 72 h after dose, MEAN, read-out: Brain product Ic concentration",5250 ng/g
same,concentration at 72 h,"brain, iv, 40 mg/kg, 40 mg.kg^-1 i.v., 72 h after dose, individual animals IV1-IV4, read-out: Brain product Ic concentration",5900 ng/g
same,concentration at 2 min,"brain, iv, 40 mg/kg, 40 mg.kg^-1 i.v., at 2 mins, read-out: brain level at the first sampling time",7900 ng/g
same,concentration at 72 h,"brain, iv, 40 mg/kg, 40 mg.kg^-1 i.v., at 72h, read-out: brain concentration at the last sampling time",5300 ng/g
same,concentration at 2 min,"plasma, iv, 40 mg/kg, 40 mg.kg^-1 i.v., 2 min after dose, MEAN, read-out: Plasma product Ic concentration",46900 ng/mL
same,concentration at 2 min,"plasma, iv, 40 mg/kg, 40 mg.kg^-1 i.v., 2 min after dose, individual animals IV1-IV4, read-out: Plasma product Ic concentration",53000 ng/mL
same,concentration at 5 min,[3],34300 ng/mL
same,concentration at 5 min,[4],36700 ng/mL
same,concentration at 0.25 h,[3],20500 ng/mL
same,concentration at 0.25 h,[4],20500 ng/mL
same,concentration at 0.5 h,[3],10400 ng/mL
same,concentration at 0.5 h,[4],10800 ng/mL
same,concentration at 0.75 h,[3],9090 ng/mL
same,concentration at 0.75 h,[4],7130 ng/mL
same,concentration at 1 h,[3],6550 ng/mL
same,concentration at 1 h,[4],6020 ng/mL
same,concentration at 4 h,"plasma, iv, 40 mg/kg, 40 mg.kg^-1 i.v., 4h after dose, MEAN, read-out: Plasma product Ic concentration",962 ng/mL
same,concentration at 4 h,"plasma, iv, 40 mg/kg, 40 mg.kg^-1 i.v., 4h after dose, individual animals IV1-IV4, read-out: Plasma product Ic concentration",1070 ng/mL
same,concentration at 6 h,[3],362 ng/mL
same,concentration at 6 h,[4],449 ng/mL
same,concentration at 8 h,[3],188 ng/mL
same,concentration at 8 h,[4],204 ng/mL
same,concentration at 14 h,[3],56 ng/mL
same,concentration at 14 h,[4],65 ng/mL
same,concentration at 24 h,[3],16 ng/mL
same,concentration at 48 h,[3],2 ng/mL
same,concentration at 4 h,"plasma, iv, 40 mg/kg, 40 mg.kg^-1 i.v., within 4h, read-out: plasma level",< 1000 ng/mL
same,half-life,"plasma, iv, 40 mg/kg, Plasma#, calculated from values ≥ b.l.q. of 20 ng.ml^-1, 40 mg.kg^-1 i.v., read-out: Initial T1/2 (converted)",12 min
same,half-life,"plasma, iv, 40 mg/kg, Plasma#, calculated from values ≥ b.l.q. of 20 ng.ml^-1, 40 mg.kg^-1 i.v., read-out: Terminal T1/2 (converted)",120 min
same,Vd,"plasma, iv, 40 mg/kg, Plasma#, calculated from values ≥ b.l.q. of 20 ng.ml^-1, 40 mg.kg^-1 i.v.",2.4 L/kg
same,AUC(0-inf),[5],30000 ng·h/mL
same,half-life,"plasma, iv, 40 mg/kg, Plasma+, calculated from values ≥ l.o.d. of 4 ng.ml^-1, 40 mg.kg^-1 i.v., read-out: Initial T1/2 (converted)",42 min
same,half-life,"plasma, iv, 40 mg/kg, Plasma+, calculated from values ≥ l.o.d. of 4 ng.ml^-1, 40 mg.kg^-1 i.v., read-out: Terminal T1/2 (converted)",372 min
same,Vd,[5],1.9 L/kg
same,AUC(0-inf),"plasma, iv, 40 mg/kg, calculated from values ≥ b.l.q. of 20 ng.ml^-1, 40 mg.kg^-1 i.v.",29800 ng·h/mL
same,half-life,"plasma, iv, 40 mg/kg, plasma, 40 mg.kg^-1 i.v., read-out: initial half-life",≤ 42 min
same,levels in the brain relative to those in the plasma,"on the basis of AUC0-∞ values, 40 mg.kg^-1 i.v.",about twenty times
same,concentration at 24 h,"plasma, iv, 40 mg.kg^-1 i.v., individual animals IV1-IV4, values flagged blq (below limit of accurate quantification, 20 ng.ml^-1), read-out: Plasma product Ic concentration",18 ng/mL
same,concentration at 48 h,"plasma, iv, 40 mg.kg^-1 i.v., individual animals IV1-IV4, blq = below 20 ng.ml^-1, n.d. = not detected (≤ l.o.d. of 4 ng.ml^-1), read-out: Plasma product Ic concentration",4 ng/mL
same,Cmax at 2 min,"plasma, iv, 40 mg.kg^-1 i.v., peak at 2 minutes, read-out: plasma peak level (mean)",46900 ng/mL
same,penetration of the blood brain barrier,post-i.v. administration,readily penetrate the blood brain barrier
